Measured values reported in the NIST ThermoML archive (doi:10.1016/j.fluid.2011.08.009).
Numbers after ± are expanded uncertainties.

Details: Liquid, Closed cell (Static) method

vapor or sublimation pressure (313.17 K) [kPa]	vapor or sublimation pressure (342.83 K) [kPa]	vapor or sublimation pressure (352.68 K) [kPa]	vapor or sublimation pressure (323.18 K) [kPa]	vapor or sublimation pressure (329.22 K) [kPa]	vapor or sublimation pressure (342.18 K) [kPa]	SMILES
6.99 ± 0.19	31.45 ± 0.24	49.8 ± 0.4	–	–	–	CCCO [propan-1-ol]
7.36 ± 0.14	30.65 ± 0.22	–	12.18 ± 0.19	–	–	O [water]
–	28.43 ± 0.28	44.66 ± 0.35	10.74 ± 0.16	14.55 ± 0.21	–	CCC(C)O (stereo not drawn) [butan-2-ol]
–	–	0.75 ± 0.1	–	–	0.36 ± 0.1	CCCCCCCCCCCC [dodecane]
–	–	–	–	65.63 ± 0.67	–	CCCCCC [hexane]
